The subject of the data set is Fathead Minnow. The following applies: 750 mg/L concentration, 48 hours.

Description: CALIFORNIA CODE REGS (“CCR”) Title 22-Fathead Minnow Hazardous Waste Screen Bioassay.

`OO` [Hydrogen peroxide (5%), Hydrogen peroxide]: the survival is reported as 0%.

Source of the values: patent publication US7145043B2, “Non-Hazardous oxidative neutralization of aldehydes” (Ethicon, Inc., priority 2003, dated 2006).
